Assay results: US11541015B2, “Self-righting systems, methods, and related components” (priority 2017, dated 2023)

Tested on: glucose-6-phosphate
Conditions: micropost tips 40% G6PD and 60% PEO 200 k, versus uncompressed powder
Description: To perform the activity assay on G6PD, an activity assay kit (Sigma Aldrich) was used which measures the amount of oxidized glucose-6-phosphate. […] Duplicate assays were performed on the dissolved solution.

glucose-6-phosphate dehydrogenase
G6PD activity after the manufacturing process: maintain their activity
